Results reported in patent US20260226022A1, “CRYSTAL FORM AND USE OF PARP7 INHIBITOR AND SALT THEREOF” (QILU PHARMACEUTICAL CO., LTD., priority 2023, published 2026).
“Also recorded” adds a separate entry of the source.

Columns and labels:
[1] = Hygroscopicity test by dynamic vapor sorption (DVS); assay type: physicochemical; settings: for Hygroscopicity evaluation: Chinese Pharmacopoeia 2020 classes; for Weight gain at 80% RH / Weight gain at 90% RH: DVS, 25° C.; for Crystal form after DVS: XRPD before and after the DVS test
Protocol: The moisture adsorption of the sample was determined using a dynamic vapor sorption instrument from DVS Intrinsic. The sample was placed in a tared sample basket and weighed by the instrument automatically and analyzed according to the parameters in Table 10.

[2] = Influence factor tests (stability at temperature, humidity, light; HPLC purity and XRPD); assay type: physicochemical
Protocol: The purity was assayed using HPLC and the crystal form was assayed using XRPD on day 0, 2 and 7, and the experimental results are shown in Table 11.
The purity was assayed using HPLC and the crystal form was assayed using XRPD on day 0, 5 and 10, and the experimental results are shown in Table 12.

PARP7 = target: T1, PARP7 (Homo sapiens, UniProt Q7Z3E1); assay: PARP7 in vitro enzymatic assay; assay type: biochemical
T1 sequence (Q7Z3E1 1-657): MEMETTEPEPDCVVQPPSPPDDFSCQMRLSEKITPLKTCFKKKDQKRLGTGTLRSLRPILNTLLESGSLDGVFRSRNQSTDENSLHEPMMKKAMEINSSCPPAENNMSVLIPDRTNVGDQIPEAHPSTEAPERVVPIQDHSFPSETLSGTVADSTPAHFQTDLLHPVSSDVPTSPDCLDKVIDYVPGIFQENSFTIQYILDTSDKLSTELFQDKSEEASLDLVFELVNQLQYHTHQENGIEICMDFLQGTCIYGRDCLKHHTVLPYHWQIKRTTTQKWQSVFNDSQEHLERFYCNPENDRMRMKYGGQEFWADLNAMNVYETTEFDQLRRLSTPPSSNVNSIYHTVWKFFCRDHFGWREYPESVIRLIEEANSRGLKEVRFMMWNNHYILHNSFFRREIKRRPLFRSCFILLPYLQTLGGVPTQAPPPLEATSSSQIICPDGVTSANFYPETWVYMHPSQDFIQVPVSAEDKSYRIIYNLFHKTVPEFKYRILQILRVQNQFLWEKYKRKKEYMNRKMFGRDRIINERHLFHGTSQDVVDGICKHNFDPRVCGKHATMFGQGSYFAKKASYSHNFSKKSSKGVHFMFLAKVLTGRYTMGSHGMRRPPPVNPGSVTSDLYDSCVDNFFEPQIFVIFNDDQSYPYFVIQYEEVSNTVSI
Protocol: In this experiment, the inhibitory effect of the compound of formula (I) on PARP7 enzyme activity was tested by serial dilution of the tested compounds and assayed in replicates. 1. A histone-coated 384-well plate was prepared by adding 25 μL of histone solution to each well and incubating at 4° C. overnight. 2. PBST buffer, blocking buffer and assay buffer were prepared. 3. The histone-coated 384-well plate was washed 3 times using PBST buffer. Blocking was performed at room temperature for 1 hour using 50 μL of blocking buffer. The plate was washed 3 times using PBST buffer. 4. Compound preparation: A 2000× compound was prepared in a 96-well source plate. 50 nL of the compound was transferred from the source plate to a 96-well intermediate plate. Each well was supplemented with 39.95 μL of assay buffer. The plate was shaken well and centrifuged at 1000 rpm for 1 minute. 5 μL of the compound in DMSO was transferred to each well. 5. Enzymatic reaction: An enzyme mixture was incubated at 25° C. for 10 minutes. 10 μL of the enzyme mixture was added and incubated with the compound for 10 minutes at room temperature. 10 μL of assay buffer was added to the negative control wells of the assay plate. 10 μL of 2.5× Biotin-NAD+ was added to each well, followed by incubation at 25° C. for 60 min. […] The plate was immediately read using Paradigm and detected for reads at Ex550/Em620. […]

[3] = In vivo pharmacokinetic determination in mice (intravenous bolus and oral); parameters: species or system C57BL/6 mice
[4] = In vivo pharmacokinetic determination in rats (intravenous bolus and oral); parameters: species or system SD rats
Text: To study the in vivo plasma pharmacokinetic behavior of the compounds of the present application after single intravenous bolus injection and oral administration, using male C57BL/6 mice or SD male rats as tested animals.
Healthy adult C57BL/6 mice or SD rats (3 rats/group), male, from Shanghai Jihui Laboratory Animal Breeding Co., Ltd. and Charles River Laboratories Co., Ltd.
The intravenous bolus injection and oral groups were consisted of 3 mice or rats, and the dose of intravenous bolus injection was 1 mg/kg in a volume of 5 mL/kg, and the dose of oral administration was 5 mg/kg in a volume of 10 mL/kg. The solvent was 5% DMSO/5% Kolliphor HS15/90% Saline.
After the animals were administered, 0.02 mL of blood was collected intravenously at 0.0833(IV), 0.25, 0.5, 1, 2, 4, 8, and 24 hours. Blood was placed in EDTA-K2 tubes, centrifuged at 4° C. and 4600 rpm for 5 min to separate the plasma, and stored at −80° C.
1) 10 μL of plasma sample was precipitated by adding 200 μL of acetonitrile, vortexed and mixed, and centrifuged for 15 min.
2) The supernatant after treatment was diluted with water, and then analyzed for the concentration of the tested compounds by LC/MS/MS.
• Liquid phase conditions: Shimadzu LC-30AD; • Mass spectrometry conditions: AB Sciex API 5500; • Chromatographic column: Phenomenex Kinetex 2.6 μm C18; • Mobile phase: A: 5 mM ammonium acetate aqueous solution (containing 0.05 vol % of formic acid); B: acetonitrile (containing 0.1 vol % of formic acid) flow rate: 0.5 mL/min;
Pharmacokinetic parameters were calculated using WinNonlin 8.0 and the pharmacokinetic parameters of the drugs administered intravenously and orally to mice or rats are shown in Tables 17 and 18 below. Wherein, “Dose” denotes the administered dose, “CL” denotes the plasma clearance, “Vss” denotes the volume of distribution at steady state of the drug, “T1/2” denotes the half-life of the drug, “AUC” denotes the area under the concentration-time curve. “Cmax” denotes the peak drug concentration, and “F” indicates bioavailability.

[5] = male, mouse, plasma, C57BL/6 mice, intravenous, 1 mg/kg
[6] = male, mouse, plasma, C57BL/6 mice, oral, 5 mg/kg
[7] = male, rat, plasma, SD rats, intravenous, 1 mg/kg
[8] = male, rat, plasma, SD rats, oral, 5 mg/kg

## O=C(OCCc1c[nH]c(=O)c(C(F)(F)F)c1)N1CCN(c2ncc(C(F)(F)F)cn2)CC1 [Crystal form IV]
[1]; listed as crystal form IV
  Hygroscopicity evaluation: slight hygroscopicity; also recorded: slightly hygroscopic
  Weight gain at 80% RH: 1.07%
  Crystal form after DVS: no transformation of the crystal; also recorded: unchanged
[1]
  Weight gain at 80% RH: 1.07%
  Weight gain at 90% RH: 1.11%
[2]; 40° C./75% RH, day 2
  Purity (Area %): 99.72 Area %
[2]; 40° C./75% RH, day 7
  Purity (Area %): 99.62 Area %
[2]; 60° C., day 2
  Purity (Area %): 99.73 Area %
[2]; 60° C., day 7
  Purity (Area %): 99.65 Area %
[2]; T0, day 0
  Purity (Area %): 99.73 Area %
[2]; high humidity
  Physicochemical stability (conclusion in words): relatively stable
[2]; high temperature
  Physicochemical stability (conclusion in words): relatively stable

## O=C(OCCc1c[nH]c(=O)c(C(F)(F)F)c1)N1CCN(c2ncc(C(F)(F)F)cn2)CC1 [Compound of formula (I), 2-(6-oxo-5-(trifluoromethyl)-1,6-dihydropyridin-3-yl)ethyl-4-(5-(trifluoromethyl)pyrimidin-2-yl) piperazine-1-carboxylate]
PARP7
  Inhibition of PARP7 enzyme activity (conclusion in words): can effectively inhibit PARP7 enzyme activity
[3]; C57BL/6 mice, oral, 5 mg/kg
  F: 80%
[3]; mouse plasma, same dose, intravenous bolus injection and oral administration
  Exposure in plasma compared with control compound RBN-2397: significantly higher exposure
[4]; SD rats, oral, 5 mg/kg
  F: 47%
[4]; rat plasma, same dose, intravenous bolus injection and oral administration
  Exposure in plasma compared with control compound RBN-2397: significantly higher exposure

## C[C@@H](COCCC(=O)N1CCN(c2ncc(C(F)(F)F)cn2)CC1)Nc1cn[nH]c(=O)c1C(F)(F)F [RBN-2397]
[3]; C57BL/6 mice, oral, 5 mg/kg
  F: 14%
[3]; [5]
  AUC: 288 ng·h/mL
  clearance: 56.7 mL/min/kg
[3]; male, mouse, plasma, C57BL/6 mice, intravenous, 1 mg/kg, read-out: Vss
  Vd: 0.6 L/kg
[3]; [6]
  AUC: 203 ng·h/mL
  Cmax: 612 ng/mL
[4]; SD rats, oral, 5 mg/kg
  F: 27%
[4]; [7]
  AUC: 193 ng·h/mL
  clearance: 85 mL/min/kg
  half-life: 12 min
[4]; male, rat, plasma, SD rats, intravenous, 1 mg/kg, read-out: Vss
  Vd: 1.2 L/kg
[4]; [8]
  AUC: 264 ng·h/mL
  Cmax: 319 ng/mL

## O=C(OCCc1c[nH]c(=O)c(C(F)(F)F)c1)N1CCN(c2ncc(C(F)(F)F)cn2)CC1 [Crystal form X]
[1]; listed as crystal form X
  Hygroscopicity evaluation: slight hygroscopicity
  Weight gain at 80% RH: 1.4%
  Crystal form after DVS: no transformation of the crystal

## O=C(OCCc1c[nH]c(=O)c(C(F)(F)F)c1)N1CCN(c2ncc(C(F)(F)F)cn2)CC1.[Na+] [Crystal form I]
[1]
  Hygroscopicity evaluation: Hygroscopic (hygroscopic weight gain of less than 15.0% but not less than 2.0%)
  Weight gain at 80% RH: 13.29%
  Weight gain at 90% RH: 13.77%
[1]; listed as crystal form I
  Hygroscopicity evaluation: had hygroscopicity; also recorded: slightly hygroscopic
  Weight gain at 80% RH: 13.29%
[2]; 25° C./75% RH, day 5
  Purity (Area %): 99.69% Area %
[2]; 25° C./75% RH, day 10
  Purity (Area %): 99.72% Area %
[2]; 25° C./90% RH, day 5
  Purity (Area %): 99.71% Area %
[2]; 25° C./90% RH, day 10
  Purity (Area %): 99.74% Area %
[2]; 40° C., day 5
  Purity (Area %): 99.71% Area %
[2]; 40° C., day 10
  Purity (Area %): 99.70% Area %
[2]; 60° C., day 5
  Purity (Area %): 99.72% Area %
[2]; 60° C., day 10
  Purity (Area %): 99.67% Area %
[2]; Light exposure, day 5
  Purity (Area %): 99.67% Area %
  XRPD: Crystal form I
[2]; Light exposure, day 10
  Purity (Area %): 99.61% Area %
[2]; T0, day 0
  Purity (Area %): 99.69% Area %
[2]; high humidity
  Physicochemical stability (conclusion in words): a transformation of the crystal occurs under high humidity conditions
[2]; high temperature
  Physicochemical stability (conclusion in words): physicochemical stable at high temperature
